Assay results from patent US20250339391A1, “METHODS FOR EFFECTIVE MANAGEMENT OF PAIN” (South Rampart Pharma, Inc., priority 2024, published 2025).
Values joined by “and” are separate entries in the source; they are usually repeats but may differ in a detail not shown here. Equal values may be shown once.

Columns and labels:
[1] = system: Sprague-Dawley rats; assay: 28-day oral toxicity study in Sprague-Dawley rats with 14-day recovery (GLP); format: in vivo
From the text: 5) A 28-day Oral Toxicity Study of SRP-001 in Sprague-Dawley Rats with 14-day Recovery (GLP study) We next set out to determine the toxicity and toxicokinetics of SRP-001 when administered via oral gavage once daily to Sprague-Dawley Rats for 28 d (Calvert Labs/Altasciences, Scott Township, PA USA). The study also assessed the reversibility of any toxicity observed with a 14-d recovery period. One hundred thirty-six experimentally naïve Sprague-Dawley rats (68 males and 68 females), 8 weeks old and weighing 167-295 g for males and females at the outset of the study, were assigned to toxicology treatment groups (Groups 1-4) or toxicokinetic groups (Groups 5-7). For toxicology groups, 10 animals/sex/dose were administered 0, 300, 900, or 1500 mg/kg/d SRP-001. An additional 5 animals/sex/dose in Groups 1 and 4 were targeted for a 14-d recovery period and euthanized on day 43. For toxicokinetic groups, 6 animals/sex/dose were administered 300, 900, or 1500 mg/kg/d SRP-001. Mortality/morbidity was performed twice daily and once prior to scheduled sacrifice. Animals in Groups 1-4 were observed prior to each dose administration and 1-3 h post-dose. Animals in Groups 1-4 were also observed once daily on non-dosing days and once prior to scheduled sacrifice. Body weights were recorded prior to randomization/selection, prior to dose administration on day 1, and weekly thereafter. Food consumption was determined weekly for animals in Groups 1-4. Ophthalmology examinations were performed before treatment initiation and during the last week of dosing for animals in Groups 1-4. The functional observational battery was assessed for 5 animals/sex/group in Groups 1-4 once prior to dosing and at 1-2 h following dose administration on day 1. Blood for evaluation of hematology, coagulation, and clinical chemistry and urine for urinalysis was collected from animals in Groups 1-4 on day 29 or day 43. Blood for toxicokinetic evaluation was collected from animals in Groups 5-7 at selected timepoints on days 1 and 28. All surviving animals in Groups 1-4 were sacrificed on day 29 or day 43. Selected tissues were harvested at necropsy, selected organs weighed, and selected tissues evaluated microscopically.

[2] = Phase 1 single ascending dose (SAD) and food effect pharmacokinetics; format: in vivo, human
Protocol: A two-part randomized, double-blind, placebo-controlled Phase 1 trial was conducted to assess the safety, tolerability, PK and PD of SRP-001 ascending doses (Quotient Sciences, Miami, FL USA). The study was conducted in accordance with the International Council for Harmonisation of Technical Requirements for Pharmaceuticals for Human Use (ICH), Guideline for GCP: Consolidated Guidance (E6), and applicable regulatory requirements(s) including clinical research guidelines established by the Basic Principles defined in the U.S. 21 CFR Parts 50, 56, and 312 and the principles enunciated in the Declaration of Helsinki (revised version Fortaleza 2013). The clinical protocol and informed consent form were reviewed and approved by an Institutional Review Board (IRB; Advarra IRB, 6100 Merriweather Drive, Suite 600, Columbia, MD 21044; Quotient Protocol No. SRP-101 and Quotient Sciences Study No. QSC205130; Quotient Sciences Miami, 3898 NW 7th Street, Miami, FL 33126.). The study comprises a SAD (Part 1) assessment that includes a food effect assessment that contributes data to inform a subsequent MAD (Part 2) dose-ranging study. Safety measurements were collected throughout the study for all subjects. Blood samples were collected to determine the PK parameters of SRP-001. ClinicalTrials.gov identifier: NCT05484414
Fasted and Fed Dosing: NHVs were dosed in the fasted state. The calorie/fat content of meals was not required to be controlled. Subjects were provided with a standardized menu. Subjects were provided with a light snack and then fasted from all food and drink (except water) for a minimum of 10 h on the day prior to dosing until approximately 4 h post-dose, at which time lunch was provided. An evening meal was provided at approximately 10 h post-dose/post-morning dose and an evening snack at approximately 14 h post-morning dose. Food effect was studied in the cohort receiving 900 mg SRP-001 in the fed state. A standard high-fat breakfast was given 30 min before dosing. On Day −1, these NHVs were provided with a light snack and fasted from all food and drink (except water) until the following morning, when they were provided with a standard high-fat breakfast. The breakfast had to be consumed over a maximum period of 25 min, with dosing occurring 30 min after the start of breakfast. Subjects were encouraged to eat their meal evenly over the 25 min period. It was acknowledged that some subjects took less time to eat, but dosing still occurred 30 min after the start of breakfast. Subjects had to consume at least 90% to be eligible for dosing. The start and stop time and percentage of the breakfast consumed were recorded in the source. Acceptable deviations for the pre-dose meal from the nominal time point were: 1) Pre-dose meal was provided within +5 min of the nominal time point, 2) Lunch was provided at approximately 4 h post-dose, 3) an evening meal at approximately 10 h post-dose, and 4) an evening snack at approximately 14 h post-dose. On subsequent days, meals were provided at appropriate times.
SRP-001 administration and PK/PD determination: Following a single administration of 300-2,000 mg SRP-001 oral suspension in the fasted state (and in cohort 4, 900 mg in the fed state), plasma concentrations of SRP-001 were observed from the first sampling timepoint of 1 h post-dose for all subjects.

CCN(CC)C(=O)c1ccccc1S(=O)(=O)NCC(=O)Nc1ccc(O)cc1 [SRP-001, N,N-diethyl-2-[[2-(4-hydroxyanilino)-2-oxo-ethyl]sulfamoyl]benzamide]
doses with minimal to mild centrilobular hepatocellular hypertrophy ([1]; both, Sprague-Dawley, rat, in vivo, 28 d): ≥ 300 mg/kg/day
doses without treatment-related adverse effects ([1]; both, Sprague-Dawley, rat, in vivo, po, 28 d): up to 1500 mg/kg/day
no-adverse effect level (NOAEL) ([1]; once daily for 28 d): 1500 mg/kg
hematology and serum chemistry changes ([1]; rat, in vivo): increases in globulin, albumin, and total protein and decreases in aspartate aminotransferase, alkaline phosphatase, and mean corpuscular hemoglobin concentration
AUC(0-48), geometric mean ([2]; 300 mg fasted): 1630 ng·h/mL
AUC(0-inf), geometric mean ([2]; 300 mg fasted): 1630 ng·h/mL
T1/2, geometric mean ([2]; 300 mg fasted): 2.38 h
dose dependence of geometric mean Cmax and AUC(0-∞) ([2]; 300 mg to 2,000 mg): dose-proportional or super-proportional increase
AUC(0-24), geometric mean ([2]; 600 mg fasted): 5660 ng·h/mL
AUC(0-inf), geometric mean ([2]; 600 mg fasted): 5840 ng·h/mL
Cmax, geometric mean ([2]; 600 mg fasted): 1740 ng/mL
T1/2, geometric mean ([2]; 600 mg fasted): 5.0 h and 5.04 h
AUC(0-24), geometric mean ([2]; 900 mg fasted): 6870 ng·h/mL
AUC(0-inf), geometric mean ([2]; 900 mg fasted): 6970 ng·h/mL
Cmax, geometric mean ([2]; 900 mg fasted): 2700 ng/mL
T1/2, geometric mean ([2]; 900 mg fasted): 3.26 h
AUC(0-24), geometric mean ([2]; 900 mg fed): 6250 ng·h/mL
AUC(0-inf), geometric mean ([2]; 900 mg fed): 5910 ng·h/mL
Cmax, geometric mean ([2]; 900 mg fed): 1200 ng/mL
T1/2, geometric mean ([2]; 900 mg fed): 3.79 h
relative bioavailability based on geometric mean AUC(0-24) ([2]; 900 mg fed vs fasted): 99.2%
relative bioavailability based on geometric mean AUC(0-inf) ([2]; 900 mg fed vs fasted): 101%
relative bioavailability based on geometric mean AUC(0-last) ([2]; 900 mg fed vs fasted): 98.4%
relative bioavailability based on geometric mean Cmax ([2]; 900 mg fed vs fasted): 48.4%
AUC(0-24), geometric mean ([2]; 2000 mg fasted): 18900 ng·h/mL
AUC(0-inf), geometric mean ([2]; 2000 mg fasted): 19600 ng·h/mL
Cmax, geometric mean ([2]; 2000 mg fasted): 4590 ng/mL
T1/2, geometric mean ([2]; 2000 mg fasted): 5.96 h
geometric mean AUC(0-24) as share of the exposure limits defined in the protocol ([2]; 2000 mg fasted): 31%
geometric mean Cmax as share of the exposure limits defined in the protocol ([2]; 2000 mg fasted): 34%
increase of geometric mean AUC(0-24) ([2]; dose from 300 to 600 mg): 3.5 fold
increase of geometric mean Cmax ([2]; dose from 300 to 600 mg): 2.6 fold
increase of geometric mean AUC(0-24) ([2]; dose from 600 to 900 mg): 1.2 fold
increase of geometric mean Cmax ([2]; dose from 600 to 900 mg): 1.6 fold
increase of geometric mean AUC(0-24) ([2]; dose from 900 to 2000 mg): 2.8 fold
increase of geometric mean Cmax ([2]; dose from 900 to 2000 mg): 1.7 fold
